Reference: patent publication US20040076683A1, “Stealth lipid nanocapsules, methods for the preparation thereof, and use thereof as a carrier for active principle(s)” (ETHYPHARM, priority 2002, published 2004)

Assay: Solubility of paclitaxel and docetaxel in triglycerides
Type: physicochemical
Details: dissolved at 75 °C, no recrystallization at room temperature
Protocol: A solution of docetaxel or paclitaxel in triglycerides, which will constitute the inner core of the lipid nanocapsules, is prepared by dissolving the drug into the triglyceride at 75° C. The amount of drug is adjusted in order to obtain solutions that will not recrystallize upon cooling to room temperature.

[1] = in Labrafac CC (C8 content 56.7%)
[2] = in Miglyol 810 N (C8 content 70.4%)

SMILES: CC(=O)O[C@@]12CO[C@@H]1C[C@H](O)[C@@]1(C)C(=O)[C@H](O)C3=C(C)[C@@H](OC(=O)[C@H](O)[C@@H](NC(=O)OC(C)(C)C)c4ccccc4)C[C@@](O)([C@@H](OC(=O)c4ccccc4)[C@H]21)C3(C)C [Docetaxel, docetaxel]
- Solubility (% w/w) [1]: 2 % w/w
- Solubility (% w/w) [2]: 3.9 % w/w
- Solubility (% w/w) (in Tricaprylin (C8 >99%)): 7 % w/w

SMILES: CC(=O)O[C@H]1C(=O)[C@@]2(C)[C@H]([C@H](OC(=O)c3ccccc3)[C@]3(O)C[C@H](OC(=O)[C@H](O)[C@@H](NC(=O)c4ccccc4)c4ccccc4)C(C)=C1C3(C)C)[C@]1(OC(C)=O)CO[C@@H]1C[C@@H]2O [Paclitaxel, paclitaxel]
- Solubility (% w/w) [1]: 1.6 % w/w
- Solubility (% w/w) [2]: 2.7 % w/w
- Solubility (% w/w) (in Tricaprylin (C8 >99%)): 6 % w/w
